SMILES strings stand for the structures. A value given as a limit tells only on which side of the number the result lay.

For orientation: solubility means the concentration that dissolves in the medium under given conditions. High values mean a readily soluble substance, low ones a poorly soluble substance. What is called IC50 is the concentration needed to halve the response being measured.

Data set [1] can be described thus: Solubility of compound in phosphate buffered saline buffer. The data set is classed as physicochemical.
The subject of another data set is Trypanosoma cruzi. The data set can be described thus: Antitrypanosomal activity against trypomastigote form of Trypanosoma cruzi Tulahuen expressing beta-galactosidase infected in mouse NIH/3T3 cells assessed as inhibition of parasite replication after 4 days by betagalactosidase-based luminescence assay. The data set is classed as functional, organism-based. To be noted: NIH3T3, 96 h.

Data set [2] relates to NIH3T3. The data set can be described thus: Cytotoxicity against mouse NIH/3T3 cells. The format is cell-based. As to conditions: for IC50: Mus musculus, NIH3T3; for Activity: mouse, nih3t3.
Data set [3] can be described thus: Selectivity ratio of IC50 for mouse NIH/3T3 cells to IC50 for trypomastigote form of Trypanosoma cruzi Tulahuen. To be noted: read-out: Ratio IC50. The data set is classed as ADME, cell-based.
For data set [4], the system named is NIH3T3. The experiment in a line: Cytotoxicity against mouse NIH/3T3 cells up to 19.5 uM. The data set is classed as cell-based.
Data set [5] can be described thus: Chemical stability of the compound in phosphate buffered saline assessed as compound remaining after 48 hrs. The data set is classed as physicochemical. As to conditions: read-out: Stability.

In the case of `Cc1cc(C)n(CC(=O)N2CCCC(C(=O)c3cccc(OC(C)C)c3)C2)n1` (centres undefined), the solubility in data set [1] is more than 200 µM. In the data set with Trypanosoma cruzi, the IC50 is 16.5 µM.

For `CCN(CC)C(=O)C1CCCN(Cc2cccc(Cl)c2)C1` (centres undefined), the solubility in data set [1] is more than 100 µM. For the same molecule, the values for the half-inhibitory concentration (IC50) with NIH3T3 [2] and in the data set on Trypanosoma cruzi were 164 µM and 9.91 µM, respectively. For the same molecule, the selectivity ratio in data set [3] was determined as 16.6.

In data set [1], `CN(Cc1ccccc1)C(=O)C1CCCN(Cc2ccc([N+](=O)[O-])cc2)C1` (centres undefined) came in with a solubility of more than 100 µM. Moreover, the IC50 turned out to be 51 µM in the data set with NIH3T3 [2] and 7.63 µM with Trypanosoma cruzi. In addition, the selectivity ratio in data set [3] was found to be 6.68.

In data set [1], `COc1ccc(CN2CCCC(C(=O)N3CCCC3)C2)c(OC)c1OC` (centres undefined) yielded a solubility of more than 100 µM. For the same molecule, the Activity result in the data set on NIH3T3 [2] was “Non-toxic”. Further, the concentration for half-maximal inhibition (IC50) with Trypanosoma cruzi was found to be 1.01 µM.

Turning to `CCCn1ncc(CN2CCCC(C(=O)c3cccc(OC(C)C)c3)C2)c1C` (centres undefined), the Activity result in the data set on NIH3T3 [4] and in the data set with NIH3T3 [2] was “Non-toxic” each time. The solubility in data set [1] is more than 500 µM. Further, the IC50 in the data set with Trypanosoma cruzi was 0.035 µM.

Regarding `CCCn1cc(CN2CCCC(C(=O)c3cccc(C(F)(F)F)c3)C2)cn1` (centres undefined), in data set [1], the solubility was more than 200 µM. Besides, the IC50 with Trypanosoma cruzi is 0.25 µM.

Molecule `COc1ccc(CN2CCCC(C(=O)N3CCc4ccccc4C3)C2)cc1OC` (centres undefined) displayed a solubility in data set [1] of more than 100 µM. Moreover, the half-maximal inhibitory concentration (IC50) in the data set with NIH3T3 [2] is 41.7 µM; in the data set with Trypanosoma cruzi, 3.54 µM. Besides, the selectivity ratio in data set [3] was determined as 11.8.

With `COc1ccc(C(=O)C2CCCN(CCc3ccccc3)C2)cc1OC` (centres undefined), the solubility in data set [1] was more than 200 µM. Besides, the IC50 with NIH3T3 [2] is 19.5 µM; in the data set with Trypanosoma cruzi, 0.518 µM. For the same molecule, the selectivity ratio in data set [3] worked out at 37.7.

Molecule `COc1ccc(C(=O)C2CCCN(CC3CCCCC3)C2)cc1OC` (centres undefined) showed a solubility in data set [1] of more than 200 µM. In addition, the IC50 with Trypanosoma cruzi worked out at 1.57 µM.

Molecule `Cn1cc(CN2CCCC(C(=O)c3ccc(C(C)(C)C)cc3)C2)cn1` (centres undefined) gave a solubility in data set [1] of more than 200 µM. The IC50 in the data set with Trypanosoma cruzi was 1.63 µM.

In data set [1], `COc1ccc(CCN(C)C(=O)C2CCCN(Cc3ccc(F)cc3)C2)cc1OC` (centres undefined) came in with a solubility of more than 100 µM. Further, the 50% inhibitory concentration (IC50) with NIH3T3 [2] came out at 64.7 µM; in the data set with Trypanosoma cruzi it was 4.33 µM. Further, in data set [3], the selectivity ratio worked out at 14.9.

For the molecule `CN(Cc1ccccc1)C(=O)C1CCCN(Cc2ccc(Br)cc2)C1` (centres undefined), the solubility in data set [1] is more than 100 µM. The 50% inhibitory concentration (IC50) in the data set on NIH3T3 [2] stood at 74.3 µM; in the data set with Trypanosoma cruzi, 3.01 µM. Besides, in data set [3], the selectivity ratio is 24.6.

`CN(Cc1ccccc1)C(=O)C1CCCN(Cc2ccccc2C(F)(F)F)C1` (centres undefined) displayed a solubility in data set [1] of more than 100 µM. The IC50 in the data set with NIH3T3 [2] was 63.3 µM; in the data set with Trypanosoma cruzi, 15.9 µM. In data set [3], the selectivity ratio was determined as 3.98.

As for `CC(C)Oc1cccc(C(=O)C2CCCN(Cc3cnn(C(C)C)c3)C2)c1` (centres undefined), the solubility in data set [1] is more than 200 µM. In addition, the Activity result in the data set on NIH3T3 [2] is recorded as “Non-toxic”. Moreover, the 50% inhibitory concentration (IC50) in the data set with Trypanosoma cruzi is 0.054 µM.

In turn, `CN(Cc1ccccc1)C(=O)C1CCCN(Cc2cccc(Cl)c2)C1` (centres undefined) had a solubility in data set [1] of more than 100 µM. Moreover, the values for the concentration for half-maximal inhibition (IC50) with NIH3T3 [2] and in the data set on Trypanosoma cruzi were 70.3 µM and 0.57 µM, respectively. In addition, in data set [3], the selectivity ratio was 123.

`COc1ccc(CCN(C)C(=O)C2CCCN(Cc3ccc(OC)c(OC)c3)C2)cc1OC` (centres undefined): the Activity entry with NIH3T3 [4] and in the data set with NIH3T3 [2] was “Non-toxic” in each case. For the same molecule, the remaining at 48 h in data set [5] worked out at 84%. In data set [1], this molecule displayed a solubility of more than 500 µM. In addition, the IC50 in the data set on Trypanosoma cruzi was 0.109 µM.

Take `CN(Cc1ccccc1)C(=O)C1CCCN(Cc2ccc(C(F)(F)F)cc2)C1` (centres undefined): the solubility in data set [1] was more than 100 µM. Besides, the IC50 with NIH3T3 [2] is 61.6 µM; in the data set with Trypanosoma cruzi, 0.008 µM. Also, in data set [3], the selectivity ratio is more than 1000.

With `CCn1ncc(CN2CCCC(C(=O)c3cccc(OC(C)C)c3)C2)c1C` (centres undefined), in data set [1], the solubility is more than 200 µM. Also, the Activity result with NIH3T3 [2] was “Non-toxic”. Moreover, the half-maximal inhibitory concentration (IC50) with Trypanosoma cruzi was 0.056 µM.

In the case of `COc1ccc(CCN(C)C(=O)C2CCCN(Cc3ccccc3)C2)cc1OC` (centres undefined), the solubility in data set [1] was more than 100 µM. In addition, the IC50 came out at 47 µM in the data set on NIH3T3 [2] and 1.4 µM in the data set on Trypanosoma cruzi. Also, the selectivity ratio in data set [3] came to 33.6.

`COc1cc2c(cc1OC)CN(C(=O)C1CCCN(Cc3ccccc3)C1)CC2` (centres undefined): the solubility in data set [1] is more than 100 µM. Besides, the half-inhibitory concentration (IC50) was 52.7 µM in the data set with NIH3T3 [2] and 0.763 µM in the data set with Trypanosoma cruzi. Besides, in data set [3], the selectivity ratio came out at 69.1.

With `COc1ccccc1CN1CCCC(C(=O)N(C)Cc2ccccc2)C1` (centres undefined), the solubility in data set [1] is more than 100 µM. The figures for the IC50 in the data set with NIH3T3 [2] and in the data set on Trypanosoma cruzi were 77.3 µM and 10.8 µM, respectively. For the same molecule, the selectivity ratio in data set [3] turned out to be 7.16.

The record behind these values is ChEMBL document CHEMBL1921698, “Identification of small-molecule inhibitors of Trypansoma cruzi replication” (Bioorg Med Chem Lett, 2011).
